For orientation: NOAEL means the highest tested level that showed no adverse finding.

The text below walks through data of US11738031B2, “Compositions and methods for preventing or treating muscle conditions” (The Board of Trustees of the Leland Stanford Junior …, priority 2017, dated 2023).

The subject of data set [1] is endogenous MuSCs in tibialis anterior (TA) muscles. Kind of data set: BLI of endogenous MuSC expansion after intramuscular bupivacaine/dmPGE2 (Example 4). The data set is classed as in vivo, mouse. The note with it: 0.125%, 0.25% or 0.5% BPV in combination with 10 μg dmPGE2, two weeks after injection. The procedure: Double-transgenic Pax7^CreERT2;Rosa26-LSL-Luc mice were generated by crossing Pax7^CreERT2 mice and Rosa26-LSL-Luc mice obtained from Jackson Laboratory (Stock #005125). These genotypes were validated by appropriate PCR-based strategies. All mice from transgenic and wild-type strains were of young age (2-4 months). All experiments were conducted using age and gender-matched controls. As depicted in the experimental scheme shown in FIG. 23A, mice were treated with five consecutive daily intraperitoneal injections of tamoxifen to activate luciferase expression under the control of the Pax7 promoter. A week after the last tamoxifen injection, the tibialis anterior (TA) muscles were injected intramuscularly with 50 μL of a drug mixture containing 0.125%, 0.25%, or 0.5% bupivacaine (BPV) (Cayman Chemical Cat #16618) and 10 μg 16,16-dimethyl prostaglandin E2 (dmPGE2; Tocris, Catalog #4027) using a 30 gauge needle on a Hamilton syringe. The contralateral TA received 50 μL of a mixture containing 0.5% bupivacaine (BPV) and DMSO vehicle as baseline sham control. Bioluminescence was assayed at days 3, 7, 10 and 14 post-injury.
Bioluminescence imaging (BLI) was performed using a Xenogen-100 system, as previously described. Briefly, mice were anesthetized using isofluorane inhalation and administered 120 μL D-luciferin (0.1 mmol/kg, reconstituted in PBS; Caliper LifeSciences) by intraperitoneal injection. BLI was acquired with between 5-60 second exposure at F-stop=1.0 at 5 minutes after luciferin injection. Digital images were recorded and analyzed using Living Image software (Caliper LifeSciences). Images were analyzed with a consistent region-of-interest (ROI) placed over each hindlimb to calculate a bioluminescence signal. A bioluminescence signal was calculated in radiance (p s^−1 cm^−2 sr^−1) value of 10^4 to define a positive threshold signal over background. BLI imaging was performed bi-weekly for 2 weeks after coinjection of BPV with dmPGE2 or vehicle.
The data in FIGS. 23A-C and 24 are shown as the mean±s.e.m. with n=6 mice. […]

For data set [2] the following is noted: published, FDA approved dose range; cited from earlier work.

As for `CCCCN1CCCCC1C(=O)Nc1c(C)cccc1C` (centres unmarked) [bupivacaine], the “muscle regeneration (fold change in BLI) vs BPV dose” value in data set [1] is “dose-dependent increase in muscle regeneration”. The NOAEL in data set [2] is 0.5%.
